# System: rat frontal cortex
# Test: Laser Doppler-flowmetry (LDF) of regional cortical blood flow (CBF) in rat
# Format: in vivo
# Procedure: All procedures were carried out in accordance with NIH guidelines. Male Harlan Sprague-Dawley rats (225-300 gm) were anesthetized briefly with 1.5% halothane in oxygen for insertion of left femoral arterial and venous cannulae and placement of tracheostomy for mechanical ventilation (using a 16 gauge intravenous catheter, Inste-W, Becton Dickinson, Sandy, Utah). All wounds were infiltrated with 1% lidocaine before incision. Following surgery, the inspired halothane concentration was reduced to 0.7% and rats were paralyzed with 2 mg/kg intravenous pancuronium, followed by a continuous intravenous infusion of pancuronium at 2 mg/kg/hr. Pancuronium was dissolved in normal saline administered at 5 ml/kg/hr. Rats were mechanically ventilated (in a small animal volume controlled ventilator, Harvard Apparatus, Inc., South Natick, Mass.) with a 80/20 air/oxygen mixture, an inspiratory to expiratory ratio of 1:1, and an initial tidal volume of 3.0 ml at a rate of 40 breaths per minute. Ventilation parameters were adjusted to maintain normal arterial blood gases (pH=7.40±0.01, PaCO2=40±2, PaO2=145±10). Arterial blood samples (150 μl) withdrawn from cannula were analyzed for arterial partial pressures of oxygen, carbon dioxide, and pH (Ciba-Coming Model 1304) before administration of drugs, and at the end of each experiment before sacrifice, to ensure animal stability. Arterial blood pressure and rectal temperature were monitored throughout the experiment. […] Rats torsos were wrapped in two heating blankets (Gaymar, Orchid Park, N.Y.) circulating warm water to maintain core temperature at 37-38° C. To minimize MRI motion artifact, rats were placed into a custom plastic cradle attached to a head frame machined from delrin plastic (David Kopf Instruments, Fremont, Calif.); heads were fixed with plastic screws inserted into the ear canals and a bar inserted under the front incisors. Rat heads were shaved and covered with gel toothpaste to reduce magnetic susceptibility artifacts arising from air-tissue interfaces; ear canals and oropharynx were also filled with toothpaste. A surface coil was secured over the dorsal surface of the head before positioning the animal in the magnet center. Cocaine (RBI, Natick, Mass.), SCH-23390 (RBI, Natick, Mass.), and cocaine methiodide (NIDA, Bethesda, Md.) were dissolved in normal saline and administered in a 0.5 ml volume at a rate of 1 ml/min via the femoral vein. Sixty minutes passed before injections of cocaine were repeated.
# Regional cortical blood flow was determined by LDF (Perimed, PF2B, Stockholm, Sweden) as described previously (Ayata, et al., 1996, J. Cereb. Blood Flow Metab., 16:539-541). Rats (n=8) were prepared exactly as for dynamic MR studies and positioned in a standard stereotaxic head frame. With the scalp incised and retracted, two holes (1-2 mm in diameter) were drilled through the skull 2 mm lateral to midline; one hole was 2 mm anterior to bregma overlying frontal cortex, and the other was 8 mm posterior to bregma to examine occipital cortex. The flow probe was positioned directly upon exposed dura mater in a puddle of mineral oil. […] All data were collected, stored, and analyzed using MacLab/8 data acquisition and analysis system (ADInstruments, Mountain View, Calif.). Arterial pressure was continuously monitored and the data stored; heart rate was calculated from arterial pressure pulses by the data acquisition software. […]
# [1] = rat frontal cortex, cocaine 0.5 mg/kg IV
structure (smiles),measurement,setting,value
COC(=O)[C@H]1[C@@H](OC(=O)c2ccccc2)C[C@@H]2CC[C@H]1N2C [cocaine],maximum increase of cortical CBF over baseline,[1],41%
same,time to peak CBF,[1],approximately 3.5 minutes
same,time of return of CBF to baseline,"rat frontal cortex, cocaine 0.5 mg/kg IV, post infusion",≤ 25 min
same,maximum elevation of frontal cortex blood flow,"rat, LDF, after 1 mg/kg cocaine",35±3

# — patent US6517812B1, “Inhibition of psychostimulant-induced and nicotine-induced craving” (The General Hospital Corporation, priority 1997, dated 2003)
